Key:
[1] = test system: Staphylococcus aureus (S. aureus) 11540 strain; assay: Standard microdilution MIC assay, S. aureus; format: cell-based
Method in brief: (§1)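 MICs obtained by CLSI-standard microdilution, quality-controlled with reference strains in parallel. Values reported as + or − relative to a 16 micrograms/mL cutoff.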

[2] = test system: Escherichia coli strain ATCC25922; assay: Standard microdilution MIC assay, E. coli; format: cell-based
Method in brief: as §1

SMILES	MIC [1] [µg/mL]	MIC [2] [µg/mL]
COc1cc(-n2cc3cc(-c4cc(CCC[C@@H](N)CF)cc(C(F)(F)F)c4F)[nH]c3nc2=O)ccc1[C@@H]1CCC[C@@H](CCNC(C)=N)N1 [Compound 237]	≤ 16	≤ 16
CC(=N)NCC[C@@H]1CCC[C@@H](c2ccc(-n3cc4cc(-c5cc(CCC[C@@H](N)C6CC6)cc(OC(F)(F)F)c5F)[nH]c4nc3=O)cc2F)N1 [Compound 208]	≤ 16	≤ 16
CC(=N)NCC[C@@H]1COC[C@@H](c2ccc(-n3cc4cc(-c5cc(CCC[C@@H](N)CO)cc(Cl)c5F)[nH]c4nc3=O)cc2)N1 [Compound 54]	≤ 16	≤ 16
CC(=N)NCC[C@H](CO)NCc1ccc(-n2cc3cc(-c4cc(CCC(F)(F)CN)cc(Cl)c4F)[nH]c3nc2=O)cc1 [Compound 91]	≤ 16	≤ 16
CC(=N)NCC[C@@H]1CCC[C@@H](c2ccc(-n3cc4cc(-c5cc(CCC[C@@H](N)C(F)(F)F)cc(Cl)c5F)[nH]c4nc3=O)cc2)N1 [Compound 63]	≤ 16	≤ 16
C=C[C@@H](N)CCCc1cc(Cl)c(F)c(-c2cc3cn(-c4ccc(CN[C@@H](C=C)CCNC(C)=N)cc4)c(=O)nc3[nH]2)c1 [Compound 30]	≤ 16	≤ 16
COC[C@H](N)CCCc1cc(Cl)c(F)c(-c2cc3cn(-c4ccc([C@@H]5CCC[C@@H](CCNC(C)=N)N5)c(F)c4)c(=O)nc3[nH]2)c1 [Compound 171]	≤ 16	≤ 16
CC(=N)NCC[C@@H]1CCC[C@@H](c2ccc(-n3cc4cc(-c5cc(CCC[C@@H](N)C6CC6)cc(OC(F)(F)F)c5F)[nH]c4nc3=O)cc2OC(F)(F)F)N1 [Compound 213]	≤ 16	≤ 16
C=C[C@@H](CCNC(C)=N)N[C@@H](C)c1ccc(-n2cc3cc(-c4cc(CCC[C@@H](N)CO)cc(Cl)c4F)[nH]c3nc2=O)cc1F [Compound 168]	≤ 16	≤ 16
C=C[C@H](N)CCCc1cc(Cl)c(F)c(-c2cc3cn(-c4ccc([C@@H]5COC[C@@H](CCNC(C)=N)N5)cc4)c(=O)nc3[nH]2)c1 [Compound 80]	≤ 16	≤ 16
CC(=N)NCC[C@@H]1CCC[C@@H](c2ccc(-n3cc4cc(-c5cc(CCC[C@H](C)N)cc(Cl)c5F)[nH]c4nc3=O)cc2C)N1 [Compound 232]	≤ 16	≤ 16
C=C[C@@H](CCNC(C)=N)NCc1ccc(-n2cc3cc(-c4cc(CCC[C@@H](N)CF)cc(Cl)c4F)[nH]c3nc2=O)cc1 [Compound 103]	≤ 16	≤ 16
C=C[C@@H](CCNC(C)=N)N[C@@H](C)c1ccc(-n2cc3cc(-c4cc(CCC[C@@H](N)CF)cc(Cl)c4F)[nH]c3nc2=O)cc1F [Compound 186]	≤ 16	≤ 16
CC(=N)NCC[C@@H]1CCC[C@@H](c2ccc(-n3cc4cc(-c5cc(CCC[C@@H](N)CF)cc(C(F)(F)F)c5)[nH]c4nc3=O)cc2OC(F)(F)F)N1 [Compound 215]	≤ 16	≤ 16
CC(=N)NCC[C@@H]1CCC[C@@H](c2ccc(-n3cc4cc(-c5cc(CCC[C@@H](N)C6CC6)cc(C(F)(F)F)c5F)[nH]c4nc3=O)cc2OC(F)(F)F)N1 [Compound 229]	≤ 16	≤ 16
CC(=N)NCC[C@@H]1CCC[C@@H](c2ccc(-n3cc4cc(-c5cc(CCC[C@H](C)N)cc(Cl)c5F)[nH]c4nc3=O)cc2)N1C[C@H](C)CO [Compound 366]	≤ 16	≤ 16
C=C[C@@H](N)CCCc1cc(Cl)c(F)c(-c2cc3cn(-c4ccc(C5(NCCCNC(C)=N)CC5)cc4)c(=O)nc3[nH]2)c1 [Compound 144]	≤ 16	≤ 16
C=C[C@H](NCCCNC(C)=N)c1ccc(-n2cc3cc(-c4cc(CCC[C@@H](N)CF)cc(Cl)c4F)[nH]c3nc2=O)cc1 [Compound 179]	≤ 16	≤ 16
C=C[C@@H](CCNC(C)=N)NC(=O)c1ccc(-n2cc3cc(-c4cc(CCC[C@H](C)N)cc(Cl)c4F)[nH]c3nc2=O)cc1 [Compound 60]	≤ 16	≤ 16
CC(=N)NCC[C@@H]1CCC[C@@H](c2ccc(-n3cc4cc(-c5cc(CCC[C@H](C)N)cc(Cl)c5F)[nH]c4nc3=O)cc2Cl)N1 [Compound 175]	≤ 16	≤ 16
COc1cc(-n2cc3cc(-c4cc(CCC[C@@H](N)C5CC5)cc(OC(F)(F)F)c4F)[nH]c3nc2=O)ccc1[C@@H]1CCC[C@@H](CCNC(C)=N)N1 [Compound 234]	≤ 16	≤ 16
CC(=N)NCCCN[C@@H](CO)c1ccc(-n2cc3cc(-c4cc(CCC[C@@H](N)CO)cc(Cl)c4F)[nH]c3nc2=O)cc1 [Compound 133]	≤ 16	≤ 16
CC(=N)NCC[C@H](CN)NCc1ccc(-n2cc3cc(-c4cc(CCC[C@H](C)N)cc(Cl)c4F)[nH]c3nc2=O)cc1 [Compound 17]	≤ 16	≤ 16
CC(=N)NCC[C@@H]1CCC[C@@H](c2ccc(-n3cc4cc(-c5cc(CCC[C@H](C)N)cc(C(F)(F)F)c5)[nH]c4nc3=O)cc2)N1CCCF [Compound 293]	≤ 16	≤ 16
CC(=N)NCC[C@@H]1CCC[C@@H](c2ccc(-n3cc4cc(-c5cc(CCC[C@@H](N)C6CC6)cc(Cl)c5F)[nH]c4nc3=O)cn2)N1 [Compound 248]	≤ 16	≤ 16
CC(=N)NCCCN[C@H](c1ccc(-n2cc3cc(-c4cc(CCC[C@H](C)N)cc(Cl)c4F)[nH]c3nc2=O)cc1)C(F)(F)F [Compound 130]	≤ 16	≤ 16
CC(=N)NCC[C@@H]1CCC[C@@H](c2ccc(-n3cc4cc(-c5cc(CCC[C@H](C)N)cc(Cl)c5F)[nH]c4nc3=O)cc2)N1CC(C)C [Compound 369]	≤ 16	≤ 16
C=CC(CCNC(=N)CF)NCc1ccc(-n2cc3cc(-c4cc(CCC[C@@H](N)C(F)(F)F)cc(Cl)c4F)[nH]c3nc2=O)cc1 (some centres unmarked) [Compound 13]	> 16	> 16

More lines, now with the values ahead:

MIC [1] [µg/mL]	MIC [2] [µg/mL]	SMILES
≤ 16	≤ 16	C=C[C@@H](CCNC(C)=N)OCc1ccc(-n2cc3cc(-c4cc(CCC[C@H](C)N)cc(Cl)c4F)[nH]c3nc2=O)cc1 [Compound 3]
≤ 16	≤ 16	CC(=N)NCC[C@H](CO)NCc1ccc(-n2cc3cc(-c4cc(CCC[C@@H](N)CO)cc(Cl)c4F)[nH]c3nc2=O)cc1 [Compound 35]
≤ 16	≤ 16	C=C[C@H](N)CCCc1cc(Cl)c(F)c(-c2cc3cn(-c4ccc([C@@H]5CCC[C@@H](CCNC(C)=N)N5CCCF)c(F)c4)c(=O)nc3[nH]2)c1 [Compound 355]
≤ 16	≤ 16	C=C[C@@H](CCNC(=N)CC(F)(F)F)NCc1ccc(-n2cc3cc(-c4cc(CCC[C@H](C)N)cc(Cl)c4F)[nH]c3nc2=O)cc1 [Compound 58]
≤ 16	≤ 16	CC(=N)NCC[C@@H]1CCC[C@@H](c2ccc(-n3cc4cc(-c5cc(CCC[C@@H]6COCCN6)cc(Cl)c5F)[nH]c4nc3=O)cc2)N1 [Compound 226]
≤ 16	≤ 16	CC(=N)NCC[C@@H]1CCC[C@@H](c2ccc(-n3cc4cc(-c5cc(CCC[C@@H](N)CF)cc(OC(F)(F)F)c5F)[nH]c4nc3=O)cc2)N1 [Compound 236]
≤ 16	≤ 16	C=C[C@@H](CCNC(=N)COC)NCc1ccc(-n2cc3cc(-c4cc(CCC[C@H](C)N)cc(Cl)c4F)[nH]c3nc2=O)cc1 [Compound 53]
≤ 16	≤ 16	CC(=N)NCC[C@@H]1CCC[C@@H](c2ccc(-n3cc4cc(-c5cc(CCC[C@@H](N)C6CC6)cc(Cl)c5F)[nH]c4nc3=O)cc2C)N1 [Compound 239]
≤ 16	≤ 16	CSc1cc(-n2cc3cc(-c4cc(CCC[C@@H](N)CO)cc(Cl)c4F)[nH]c3nc2=O)ccc1[C@@H]1CCC[C@@H](CCNC(C)=N)N1 [Compound 116]
≤ 16	≤ 16	CC(=N)NCC[C@@H]1CCC[C@@H](c2ccc(-n3cc4cc(-c5cc(CCC(C)(C)CN)cc(Cl)c5F)[nH]c4nc3=O)cc2)N1 [Compound 24]
≤ 16	≤ 16	CC(=N)NCC[C@@H]1CSC[C@@H](c2ccc(-n3cc4cc(-c5cc(CCC[C@@H](N)C6CC6)cc(Cl)c5F)[nH]c4nc3=O)cc2)N1 [Compound 269]
≤ 16	≤ 16	CC(=N)NCC[C@@H]1CCC[C@@H](c2ccc(-n3cc4cc(-c5cc(CCC[C@H](C)N)cc(Cl)c5F)[nH]c4nc3=O)cc2)N1Cc1c(C)ncn1C [Compound 288]
≤ 16	≤ 16	C=C[C@H](NCCCNC(C)=N)c1ccc(-n2cc3cc(-c4cc(CCC[C@@H](N)C=C)cc(Cl)c4F)[nH]c3nc2=O)cc1 [Compound 265]
≤ 16	≤ 16	CC(=N)NCC[C@@H]1CCC[C@@H](c2ccc(-n3cc4cc(-c5cc(CCC[C@@H](N)CF)cc(Cl)c5F)[nH]c4nc3=O)cc2)N1C [Compound 137]
≤ 16	≤ 16	CC(C)(N)CCCc1cc(Cl)c(F)c(-c2cc3cn(-c4ccc([C@@H]5CCC[C@@H](CCNC(=N)CF)N5)cc4)c(=O)nc3[nH]2)c1 [Compound 12]
≤ 16	≤ 16	C[C@H](N)CCCc1cc(Cl)c(F)c(-c2cc3cn(-c4ccc(CN[C@@H](CN)CCNC(=N)CF)cc4)c(=O)nc3[nH]2)c1 [Compound 20]
≤ 16	≤ 16	C=C[C@H](NCCCNC(C)=N)c1ccc(-n2cc3cc(-c4cc(CCC[C@H](C)N)cc(Cl)c4F)[nH]c3nc2=O)cc1 [Compound 161]
≤ 16	≤ 16	C=C[C@H](NCCCNC(C)=N)c1ccc(-n2cc3cc(-c4cc(CCCC(C)(C)N)cc(Cl)c4F)[nH]c3nc2=O)cc1 [Compound 267]
≤ 16	≤ 16	CSCC(=N)NCC[C@H](CO)NCc1ccc(-n2cc3cc(-c4cc(CCC[C@H](C)N)cc(Cl)c4F)[nH]c3nc2=O)cc1 [Compound 41]
≤ 16	≤ 16	C=C[C@H](NCCCNC(C)=N)c1ccc(-n2cc3cc(-c4cc(CCC[C@@H](N)C5CC5)cc(Cl)c4F)[nH]c3nc2=O)cc1 [Compound 266]
≤ 16	≤ 16	CC(=N)NCC[C@H](CO)N[C@@H](C)c1ccc(-n2cc3cc(-c4cc(CCC[C@@H](N)CF)cc(Cl)c4F)[nH]c3nc2=O)cc1F [Compound 178]

From patent publication US11999739B2, “Antimicrobials methods of making and using the same” (BIOVERSYS AG, priority 2016, dated 2024)
